The results in this text go back to US20070010671A1, “Novel quinazoline derivatives and methods of treatment related to the use thereof” (priority 2003, published 2007).

The target in the assay is MCH receptor (Homo sapiens, UniProt Q99705). The assay is described as follows: High throughput functional screening FLIPR/FDSS6000: inhibition of MCH-evoked intracellular Ca2+ changes. Conditions: class by percent of control at 10^-7 M or by IC50; read-out: class. It is filed as cell-based. In a few lines: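 Antagonism was measured as inhibition of calcium responses to 50 nM MCH, monitored 290 s at ex 488/em 530 nm on FLIPR or FDSS6000. Beforehand, cells bearing a constitutively active MCH receptor received Fluo4-AM (4 μM, 1 h, 37 °C) with probenecid, and test compound for 3 min.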

pIC50: −log10 of the molar value. Where only a bound is given, the exact number is not on record here.

Consider `CN(C)c1nc(N[C@H]2CC[C@@H](NC(=O)Nc3ccc(F)cc3)CC2)nc2ccccc12` [compound 36, N-(cis-4-{[4-(dimethylamino)quinazolin-2-yl]amino}cyclohexyl)-N′-(4-fluorophenyl)urea], for which the pIC50 is more than 7.30.
For the molecule `CN(C)c1nc(N[C@H]2CC[C@@H](NC(=O)Nc3cccc(F)c3)CC2)nc2ccccc12` [compound 37], the pIC50 is less than 6.70.
The value for `CN(C)c1nc(N[C@H]2CC[C@@H](NC(=O)Nc3ccccc3F)CC2)nc2ccccc12` [compound 38] was less than 6.70.
The result for `CC(C)c1ccc(NC(=O)N[C@H]2CC[C@@H](Nc3nc(N(C)C)c4ccccc4n3)CC2)cc1` [compound 39] reads less than 6.70.
For the molecule `C=C(C)c1cccc(C(C)(C)NC(=O)N[C@H]2CC[C@@H](Nc3nc(N(C)C)c4ccccc4n3)CC2)c1` [compound 40, N-(cis-4-{[4-(dimethylamino)quinazolin-2-yl]amino}cyclohexyl)-N′-[1-(3-isopropenylphenyl)-1-methylethyl]urea], the pIC50 is more than 7.30.
The result for `CC(C)NC(=O)N[C@H]1CC[C@@H](Nc2nc(N(C)C)c3ccccc3n2)CC1` [compound 42] reads less than 6.70; that for `COc1ccc(NC(=O)N[C@H]2CC[C@@H](Nc3nc(N(C)C)c4ccccc4n3)CC2)cc1` [compound 43, N-(cis-4-{[4-(dimethylamino)quinazolin-2-yl]amino}cyclohexyl)-N′-(4-methoxyphenyl)urea], 6.70 to 7.30.
The result for `Cc1ccc(NC(=O)N[C@H]2CC[C@@H](Nc3nc(N(C)C)c4ccccc4n3)CC2)c([N+](=O)[O-])c1` [compound 44] reads less than 6.70.
Turning to `COc1ccccc1NC(=O)N[C@H]1CC[C@@H](Nc2nc(N(C)C)c3ccccc3n2)CC1` [compound 45, N-(cis-4-{[4-(dimethylamino)quinazolin-2-yl]amino}cyclohexyl)-N′-(2-methoxyphenyl)urea], the pIC50 is 6.70 to 7.30.
For `COc1cccc(NC(=O)N[C@H]2CC[C@@H](Nc3nc(N(C)C)c4ccccc4n3)CC2)c1` [compound 46, N-(cis-4-{[4-(dimethylamino)quinazolin-2-yl]amino}cyclohexyl)-N′-(3-methoxyphenyl)urea], the pIC50 was 6.70 to 7.30.
The value for `CSc1ccc(NC(=O)N[C@H]2CC[C@@H](Nc3nc(N(C)C)c4ccccc4n3)CC2)cc1` [compound 47, N-(cis-4-{[4-(dimethylamino)quinazolin-2-yl]amino}cyclohexyl)-N′-[4-(methylthio)phenyl]urea] was more than 7.30; that for `COc1ccc(CNC(=O)N[C@H]2CC[C@@H](Nc3nc(N(C)C)c4ccccc4n3)CC2)cc1` [compound 48, N-(cis-4-{[4-(dimethylamino)quinazolin-2-yl]amino}cyclohexyl)-N′-(4-methoxybenzyl)urea] was 6.70 to 7.30.
The value for `Cc1cccc(CNC(=O)N[C@H]2CC[C@@H](Nc3nc(N(C)C)c4ccccc4n3)CC2)c1` [compound 49] was less than 6.70.
The result for `CN(C)c1nc(N[C@H]2CC[C@@H](NC(=O)Nc3cccc4ccccc34)CC2)nc2ccccc12` [compound 50, N-(cis-4-{[4-(dimethylamino)quinazolin-2-yl]amino}cyclohexyl)-N′-1-napthylurea] reads more than 7.30.
In the case of `CN(C)c1nc(N[C@H]2CC[C@@H](NC(=O)NC3C[C@H]3c3ccccc3)CC2)nc2ccccc12` (stereo partly drawn) [compound 51, N-(cis-4-{[4-(dimethylamino)quinazolin-2-yl]amino}cyclohexyl)-N′-[(2S)-2-phenylcyclopropyl]urea], the pIC50 is more than 7.30.
`CN(C)c1nc(N[C@H]2CC[C@@H](NC(=O)Nc3ccccc3)CC2)nc2ccccc12` [compound 52, N-(cis-4-{[4-(dimethylamino)quinazolin-2-yl]amino}cyclohexyl)-N′-phenylurea]: the pIC50 is 6.70 to 7.30.
On to `CN(C)c1nc(N[C@H]2CC[C@@H](NC(=O)Nc3ccc(Oc4ccccc4)cc3)CC2)nc2ccccc12` [compound 53, N-(cis-4-{[4-(dimethylamino)quinazolin-2-yl]amino}cyclohexyl)-N′-(4-phenoxyphenyl)urea], for which the pIC50 is more than 7.30.
The result for `CCCCCNC(=O)N[C@H]1CC[C@@H](Nc2nc(N(C)C)c3ccccc3n2)CC1` [compound 54, N-(cis-4-{[4-(dimethylamino)quinazolin-2-yl]amino}cyclohexyl)-N′-pentylurea] reads more than 7.30; that for `CN(C)c1nc(N[C@H]2CC[C@@H](NC(=O)Nc3ccccc3C(F)(F)F)CC2)nc2ccccc12` [compound 55, N-(cis-4-{[4-(dimethylamino)quinazolin-2-yl]amino}cyclohexyl)-N′-[2-(trifluoromethyl)phenyl]urea], more than 7.30; that for `CN(C)c1nc(N[C@H]2CC[C@@H](NC(=O)Nc3cccc(C(F)(F)F)c3)CC2)nc2ccccc12` [compound 56], less than 6.70.
Take `Cc1ccc(NC(=O)N[C@H]2CC[C@@H](Nc3nc(N(C)C)c4ccccc4n3)CC2)cc1` [compound 57, N-(cis-4-{[4-(dimethylamino)quinazolin-2-yl]amino}cyclohexyl)-N′-(4-methylphenyl)urea]: the pIC50 was 6.70 to 7.30.
The result for `Cc1cc(C)c(NC(=O)N[C@H]2CC[C@@H](Nc3nc(N(C)C)c4ccccc4n3)CC2)c(C)c1` [compound 58, N-(cis-4-{[4-(dimethylamino)quinazolin-2-yl]amino}cyclohexyl)-N′-mesitylurea] reads more than 7.30.
The value for `Cc1cccc(NC(=O)N[C@H]2CC[C@@H](Nc3nc(N(C)C)c4ccccc4n3)CC2)c1` [compound 59, N-(cis-4-{[4-(dimethylamino)quinazolin-2-yl]amino}cyclohexyl)-N′-(3-methylphenyl)urea] was 6.70 to 7.30.
As for `Cc1ccccc1NC(=O)N[C@H]1CC[C@@H](Nc2nc(N(C)C)c3ccccc3n2)CC1` [compound 60, N-(cis-4-{[4-(dimethylamino)quinazolin-2-yl]amino}cyclohexyl)-N′-(2-methylphenyl)urea], the pIC50 is more than 7.30.
For `CC(NC(=O)N[C@H]1CC[C@@H](Nc2nc(N(C)C)c3ccccc3n2)CC1)c1cccc2ccccc12` (stereo partly drawn) [compound 61, N-(cis-4-{[4-(dimethylamino)quinazolin-2-yl]amino}cyclohexyl)-N′-[1-(-napthyl)ethyl]urea], the pIC50 is more than 7.30.
The result for `CN(C)c1nc(N[C@H]2CC[C@@H](NC(=O)Nc3c(Cl)cc(Cl)cc3Cl)CC2)nc2ccccc12` [compound 63, N-(cis-4-{[4-(dimethylamino)quinazolin-2-yl]amino}cyclohexyl)-N′-(2,4,6-trichlorophenyl)urea] reads more than 7.30; that for `Cc1ccc(NC(=O)N[C@H]2CC[C@@H](Nc3nc(N(C)C)c4ccccc4n3)CC2)cc1Cl` [compound 64], less than 6.70; that for `CC(NC(=O)NC1CCC(Nc2nc(N(C)C)c3ccccc3n2)CC1)c1ccccc1` (stereo not shown) [compound 66, 1-[4-(4-Dimethylamino-quinazolin-2-ylamino)-cyclohexyl]-3-(1-phenyl-ethyl)-urea], more than 7.30.
The result for `CC(NC(=O)NC1CCC(Nc2nc(N(C)C)c3ccccc3n2)CC1)c1cccc2ccccc12` (stereo not shown) [compound 67, 1-[4-(4-Dimethylamino-quinazolin-2-ylamino)-cyclohexyl]-3-(1-napthalen-1-yl-ethyl)-urea] reads 6.70 to 7.30.
Consider `CC(C)c1cccc(C(C)C)c1NC(=O)N[C@H]1CC[C@@H](Nc2nc(N(C)C)c3ccccc3n2)CC1` [compound 68], for which the pIC50 is less than 6.70.
In the case of `CN(C)c1nc(N[C@H]2CC[C@@H](NC(=O)Nc3ccccc3OC(F)F)CC2)nc2ccccc12` [compound 69], the pIC50 was less than 6.70.
For the molecule `COC(=O)c1ccccc1NC(=O)N[C@H]1CC[C@@H](Nc2nc(N(C)C)c3ccccc3n2)CC1` [compound 70, metyl 2-({[4(cis-4-{[-(dimethylamino)quinazolin-2-yl]amino}cyclohexyl)amino]carbonyl}amino)benzoate], the pIC50 was less than 6.70.
For the molecule `CSc1ccccc1NC(=O)N[C@H]1CC[C@@H](Nc2nc(N(C)C)c3ccccc3n2)CC1` [compound 71], the pIC50 is 6.70 to 7.30.
Turning to `CN(C)c1nc(N[C@H]2CC[C@@H](NC(=O)Nc3c(Cl)c(Cl)cc(Cl)c3Cl)CC2)nc2ccccc12` [compound 72, N-(cis-4-{[4-(dimethylamino)quinazolin-2-yl]amino}cyclohexyl)-N′-(2,3,5,6-tetrachlorophenyl)urea], the pIC50 was more than 7.30.
Take `Cc1ccc([N+](=O)[O-])c(NC(=O)N[C@H]2CC[C@@H](Nc3nc(N(C)C)c4ccccc4n3)CC2)c1C` [compound 73, N-(cis-4-{[4-(dimethylamino)quinazolin-2-yl]amino}cyclohexyl)-N′-(2,3-dimethyl-6-nitrophenyl)urea]: the pIC50 was 6.70 to 7.30.
The result for `CN(C)c1nc(N[C@H]2CC[C@@H](NC(=O)Nc3cc(Cl)c(Cl)cc3Cl)CC2)nc2ccccc12` [compound 74] reads less than 6.70; that for `CN(C)c1nc(N[C@H]2CC[C@@H](NC(=O)Nc3c(Br)cc(Br)cc3Br)CC2)nc2ccccc12` [compound 75, N-(cis-4-{[4-(dimethylamino)quinazolin-2-yl]amino}cyclohexyl)-N′-(2,4,6-tribromophenyl)urea], more than 7.30.
The value for `CN(C)c1nc(N[C@H]2CC[C@@H](NC(=O)Nc3c(F)cc(Br)cc3Br)CC2)nc2ccccc12` [compound 76, N-(2,4-dibromo-6-fluorophenyl)-N′-(cis-4-{[4-(dimethylamino)quinazolin-2-yl]amino}cyclohexyl)urea] was more than 7.30; that for `CN(C)c1nc(N[C@H]2CC[C@@H](NC(=O)Nc3ccc(Br)cc3Br)CC2)nc2ccccc12` [compound 77, N-(2,4-dibromophenyl)-N′-(cis-4-{[4-(dimethylamino)quinazolin-2-yl]amino}cyclohexyl)urea] was more than 7.30; that for `CN(C)c1nc(N[C@H]2CC[C@@H](NC(=O)NCc3ccc(Cl)cc3Cl)CC2)nc2ccccc12` [compound 78, N-(2,4-dichlorobenzyl)-N′-(cis-4-{[4-(dimethylamino)quinazolin-2-yl]amino}cyclohexyl)urea] was more than 7.30.
